# Target: T1, human RORγt (Ligand Binding Domain) (Homo sapiens, UniProt P51449)
# T1 construct: purchased Crelux (Planegg, Germany) batch no PC5032-1
# T1 sequence (P51449 269-508 limits assumed): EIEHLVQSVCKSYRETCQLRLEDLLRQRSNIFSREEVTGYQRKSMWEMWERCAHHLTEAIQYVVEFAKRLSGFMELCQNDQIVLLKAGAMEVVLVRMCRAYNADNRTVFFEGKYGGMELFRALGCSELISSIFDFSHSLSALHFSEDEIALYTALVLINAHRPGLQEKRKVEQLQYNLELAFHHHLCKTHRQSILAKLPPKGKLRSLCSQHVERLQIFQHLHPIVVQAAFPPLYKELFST
# Assay: Fluorescence Polarization (FP) Assay
# Conditions: 100 nM human RORγt LBD, 25 nM TAMRA probe, values are activity range bounds
# Protocol: The activity of the compounds was evaluated using a Fluorescence Polarization (FP) Assay and, RORγ Reporter assay (also referred to as Gal4 assay). The FP assay is an in vitro assay monitoring binding within the ligand binding pocket. The RORγ and the Th17 assays (another suitable assay) are both cell-based assays monitoring functional activity of the compound assayed.
# Fluorescence Polarization (FP) Assay
# The total volume was 25 μl, in a black Perkin Elmer OptiPlate. As negative control, 1 μl DMSO was used. […] The probe is a fluorescently labeled (TAMRA) RORγt ligand identified by Nuevolution with a total molecular weight of 910 g/mole as shown in Graph A in FIG. 1.
row,Structure (SMILES),IC50 [µM]
1,"Fc1c(NCc2ccncc2)ncnc1N(Cc1ccc(C(F)(F)F)cc1)C1CC1 [Example A41, N4-cyclopropyl-5-fluoro-N6-(4-pyridylmethyl)-N4-[[4-(trifluoromethyl)phenyl]methyl] pyrimidine-4,6-diamine]",< 0.5
2,"COC1CCCCC1CNc1ncnc(N(Cc2ccc(C(F)(F)F)cc2)C2CC2)c1F (centres unmarked) [Example A43, N4-cyclopropyl-5-fluoro-N6-[(2-methoxycyclohexyl)methyl]-N4-[[4-(trifluoromethyl)phenyl]methyl] pyrimidine-4,6-diamine]",< 1
3,"OC1(CNc2ncnc(N(Cc3ccc(C(F)(F)F)cc3)C3CC3)c2F)CCC(F)(F)CC1 [Example A44, 1-[[[6-[cyclopropyl-[[4-(trifluoromethyl)phenyl]methyl]amino]-5-fluoro-pyrimidin-4-yl]amino]methyl]-4,4-difluoro-cyclohexanol]",< 0.5
4,"CS(=O)(=O)CC1(CNc2ncnc(N(Cc3ccc(C(F)(F)F)cc3)C3COC3)c2F)CCOCC1 [Example A45, 5-fluoro-N6-[[4-(methylsulfonylmethyl)tetrahydro-pyran-4-yl]methyl]-N4-(oxetan-3-yl)-N4-[[4-(trifluoromethyl)phenyl]methyl] pyrimidine-4,6-diamine]",< 2
5,"CC(C)(C)OC(=O)NCC(c1ccc(C(F)(F)F)cc1)N(c1ncnc(NCc2ccc(CC(N)=O)cc2)c1F)C1CC1 (centres unmarked) [Example A47, tert-butyl N-[2-[[6-[[4-(2-amino-2-oxo-ethyl)phenyl]methylamino]-5-fluoro-pyrimidin-4-yl]-cyclopropyl-amino]-2-[4-(trifluoromethyl)phenyl]ethyl] carbamate]",< 10
6,"CS(=O)(=O)N1CCC(O)(CNc2ncnc(N(Cc3ccc(C(F)(F)F)cc3)C3CC3)c2F)CC1 [Example A69, 4-[[[6-[cyclopropyl-[[4-(trifluoromethyl)phenyl]methyl]amino]-5-fluoro-pyrimidin-4-yl]amino]methyl]-1-methylsulfonyl-piperidin-4-ol]",< 0.5
7,"O=C(O)CC1(CNc2ncnc(N(Cc3ccc(C(F)(F)F)cc3)C3CC3)c2F)CCS(=O)(=O)CC1 [Example A72, 2-[4-[[[6-[cyclopropyl-[[4-(trifluoromethyl)phenyl]methyl]amino]-5-fluoro-pyrimidin-4-yl]amino]methyl]-1,1-dioxo-thian-4-yl]acetic acid]",< 10
8,"N#CNC(=O)c1ccc(CNc2ncnc(N(Cc3ccc(C(F)(F)F)cc3)C3CC3)c2F)cc1 [Example A84, N-cyano-4-[[[6-[cyclopropyl-[[4-(trifluoromethyl)phenyl]methyl]amino]-5-fluoro-pyrimidin-4-yl]amino]methyl]benzamide]",< 0.5
9,"O=C(O)CC1CC(CNc2ncnc(N(Cc3ccc(C(F)(F)F)cc3)C3CC3)c2F)C1 (centres unmarked) [Example A92, 2-[3-[[[6-[cyclopropyl-[[4-(trifluoromethyl)phenyl]methyl]amino]-5-fluoro-pyrimidin-4-yl]amino]methyl]cyclobutyl]acetic acid]",< 10
10,"N#Cc1ccc(CN(c2ncnc(NCc3ccc(CC(N)=O)cc3)c2F)C2CC2)cn1 [Example A93, 2-[4-[[[6-[(6-cyano-3-pyridyl)methyl-cyclopropyl-amino]-5-fluoro-pyrimidin-4-yl]amino]methyl]phenyl]acetamide]",< 2
11,"NC(=O)C1CC(CNc2ncnc(N(Cc3ccc(C(F)(F)F)cc3)C3CC3)c2F)C1 (centres unmarked) [Example A96, 3-[[[6-[cyclopropyl-[[4-(trifluoromethyl)phenyl]methyl]amino]-5-fluoro-pyrimidin-4-yl]amino]methyl]cyclobutane-carboxamide]",< 10
12,"NC(=O)Cc1ccc(CNc2ncnc(N(Cc3ccc(C(F)(F)F)nn3)C3CC3)c2F)cc1 [Example A99, 2-[4-[[[6-[cyclopropyl-[[6-(trifluoromethyl)pyridazin-3-yl]methyl]amino]-5-fluoro-pyrimidin-4-yl]amino]methyl]phenyl]acetamide]",< 10
13,"CS(=O)(=O)N1CCC(C(=O)Nc2ncnc(N(Cc3ccc(C(F)(F)F)cc3)C3CC3)c2F)CC1 [Example A100, N-[6-[cyclopropyl-[[4-(trifluoromethyl)phenyl]methyl]amino]-5-fluoro-pyrimidin-4-yl]-1-methylsulfonyl-piperidine-4-carboxamide]",< 10
14,"O=S(=O)(Nc1ccc(CNc2ncnc(N(Cc3ccc(C(F)(F)F)nc3)C3CC3)c2F)cc1)C(F)F [Example A105, N-[4-[[[6-[cyclopropyl-[[6-(trifluoromethyl)-3-pyridyl]methyl]amino]-5-fluoro-pyrimidin-4-yl]amino]methyl]phenyl]-1,1-difluoro-methanesulfonamide]",< 10
15,"O=S(=O)(Nc1ccc(CNc2ncnc(N(Cc3ccc(C(F)(F)F)cn3)C3CC3)c2F)cc1)C(F)F [Example A106, N-[4-[[[6-[cyclopropyl-[[5-(trifluoromethyl)-2-pyridyl]methyl]amino]-5-fluoro-pyrimidin-4-yl]amino]methyl]phenyl]-1,1-difluoro-methanesulfonamide]",< 10
16,"CS(=O)(=O)Nc1ncc(CNc2ncnc(N(Cc3ccc(C(F)(F)F)cc3)C3CC3)c2F)cn1 [Example A111, N-[5-[[[6-[cyclopropyl-[[4-(trifluoromethyl)phenyl]methyl]amino]-5-fluoro-pyrimidin-4-yl]amino]methyl]pyrimidin-2-yl]methanesulfonamide]",< 1
17,"NC(=O)Cc1ccc(CNc2ncnc(N(Cc3ccc(C(F)(F)F)nc3)C3CC3)c2F)cn1 [Example A112, 2-[5-[[[6-[cyclopropyl-[[6-(trifluoromethyl)-3-pyridyl]methyl]amino]-5-fluoro-pyrimidin-4-yl]amino]methyl]-2-pyridyl]acetamide]",< 2
18,"NC(=O)Cc1ccc(CNc2ncnc(N(Cc3ccc(C(F)(F)F)cn3)C3CC3)c2F)cn1 [Example A113, 2-[5-[[[6-[cyclopropyl-[[5-(trifluoromethyl)-2-pyridyl]methyl]amino]-5-fluoro-pyrimidin-4-yl]amino]methyl]-2-pyridyl]acetamide]",< 10
19,"CS(=O)(=O)c1ccc(CNc2ncnc(N(Cc3ccc(C(F)(F)F)nc3)C3CC3)c2F)nc1 [Example A114, N4-cyclopropyl-5-fluoro-N6-[(5-methylsulfonyl-2-pyridyl)methyl]-N4-[[6-(trifluoromethyl)-3-pyridyl]methyl]pyrimidine-4,6-diamine]",< 0.5
20,"CS(=O)(=O)c1ccc(CNc2ncnc(N(Cc3ccc(C(F)(F)F)cn3)C3CC3)c2F)nc1 [Example A115, N4-cyclopropyl-5-fluoro-N6-[(5-methylsulfonyl-2-pyridyl)methyl]-N4-[[5-(trifluoromethyl)-2-pyridyl]methyl]pyrimidine-4,6-diamine]",< 0.5
21,"CN(Cc1cccc2ccccc12)c1ncnc(NCc2ccc(CC(N)=O)cc2)c1F [Example A118, 2-[4-[[[5-fluoro-6-[methyl(1-naphthylmethyl)amino]pyrimidin-4-yl]amino]methyl]phenyl]acetamide]",< 0.5
22,"Cn1cc(CN(c2ncnc(NCc3ccc(CC(N)=O)cc3)c2F)C2CC2)cn1 [Example A119, 2-[4-[[[6-[cyclopropyl-[(1-methylpyrazol-4-yl)methyl]amino]-5-fluoro-pyrimidin-4-yl]amino]methyl]phenyl]acetamide]",< 2
23,"CN(Cc1ccc2ccccc2c1)c1ncnc(NCc2ccc(CC(N)=O)cc2)c1F [Example A121, 2-[4-[[[5-fluoro-6-[methyl(2-naphthylmethyl)amino]pyrimidin-4-yl]amino]methyl]phenyl]acetamide]",< 0.5
24,"CN(Cc1ccccc1OC(F)(F)F)c1ncnc(NCc2ccc(CC(N)=O)cc2)c1F [Example A122, 2-[4-[[[5-fluoro-6-[methyl-[[2-(trifluoromethoxy)phenyl]methyl]amino]pyrimidin-4-yl]amino]methyl]phenyl]acetamide]",< 0.5
25,"CCN(Cc1cn(CC)nc1C)c1ncnc(NCc2ccc(CC(N)=O)cc2)c1F [Example A123, 2-[4-[[[6-[ethyl-[(1-ethyl-3-methyl-pyrazol-4-yl)methyl]amino]-5-fluoro-pyrimidin-4-yl]amino]methyl]phenyl]acetamide]",< 10
26,"CCN(Cc1cccc2c1OCO2)c1ncnc(NCc2ccc(CC(N)=O)cc2)c1F [Example A126, 2-[4-[[[6-[1,3-benzodioxol-4-ylmethyl(ethyl)amino]-5-fluoro-pyrimidin-4-yl]amino]methyl]phenyl]acetamide]",< 0.5
27,"CN(Cc1cccc(OC(F)F)c1)c1ncnc(NCc2ccc(CC(N)=O)cc2)c1F [Example A127, 2-[4-[[[6-[[3-(difluoromethoxy)phenyl]methyl-methyl-amino]-5-fluoro-pyrimidin-4-yl]amino]methyl]phenyl]acetamide]",< 0.5
28,"CN(Cc1cccc(OC(F)(F)F)c1)c1ncnc(NCc2ccc(CC(N)=O)cc2)c1F [Example A128, 2-[4-[[[5-fluoro-6-[methyl-[[3-(trifluoromethoxy)phenyl]methyl]amino]pyrimidin-4-yl]amino]methyl]phenyl]acetamide]",< 0.5
29,"CN(Cc1cccc(C(F)(F)F)c1)c1ncnc(NCc2ccc(CC(N)=O)cc2)c1F [Example A129, 2-[4-[[[5-fluoro-6-[methyl-[[3-(trifluoromethyl)phenyl]methyl]amino]pyrimidin-4-yl]amino]methyl]phenyl]acetamide]",< 0.5

# From patent publication US10683293B2, “Optionally fused heterocyclyl-substituted derivatives of pyrimidine useful for the treatment of inflammatory, metabolic, oncologic and autoimmune diseases” (NUEVOLUTION A/S, priority 2014, dated 2020)
